Laboratory results reported in patent publication US20160175306A1, “COMBINATION OF A IMIDAZOPYRIDAZINE DERIVATIVE AND A MITOTIC AGENT FOR THE TREATMENT OF CANCER” (BAYER PHARMA AKTIENGESELLSCHAFT, priority 2013, published 2016).
Like-named read-outs stand apart in the source and are kept apart here. Marks after values point to notes of the source that are not given here.

Key:
[1] = system: NCI-H1299 human NSCLC xenograft model; details: for T/C area: relative tumor area at control dosing stop
Source text: In Vivo Anti-Tumor Efficacy of Mps-1 Kinase Inhibitors of the Present Invention in Combination with Paclitaxel in NCI-H1299 Human NSCLC Model in Nude Mice
The effect of combination treatment of an Mps-1 kinase inhibitor of the present invention and paclitaxel was studied in the NCI-H1299 taxane intrinsically resistant human lung carcinoma (NSCLC) xenograft model in nude mice. […] Substances were formulated in optimal vehicles to achieve solutions. Animal body weight and tumor size were determined three times weekly. Treatment for all groups started at a tumor size of 30 mm^2, at day 8 after tumor cell inoculation. […] At the end of the study after one final treatment plasma and tumors were sampled for PK analysis and final tumor weight was determined.

[2] = system: A2780cis human ovarian cancer xenograft model
Experimental: In Vivo Anti-Tumor Efficacy of Mps-1 Kinase Inhibitors of the Present Invention in Combination with Paclitaxel in A2780cis Human Ovarian Cancer Model in Nude Mice
The effect of combination treatment of an Mps-1 kinase inhibitor of the present invention and paclitaxel was studied in the adaptive cisplatin-resistant and paclitaxel intrinsically resistant A2780cis xenograft model. […] Animal body weight and tumor size were determined three times weekly. Treatment for all groups started at a tumor size of 29 mm^2, at day 6 after tumor cell inoculation. […] At the end of the study after one final treatment plasma and tumors were sampled for PK analysis and final tumor weight was determined.

[3] = system: rat hepatocytes; experiment: In vitro metabolic stability in rat hepatocytes; format: in vitro ADME; details: 1 μM test compound, calculated from half-life
Experimental: Investigation of In Vitro Metabolic Stability in Rat Hepatocytes (Including Calculation of Hepatic In Vivo Blood Clearance (CL))
Hepatocytes from Han Wistar rats were isolated via a 2-step perfusion method. After perfusion, the liver was carefully removed from the rat: the liver capsule was opened and the hepatocytes were gently shaken out into a Petri dish with ice-cold WME. The resulting cell suspension was filtered through sterile gaze in 50 ml falcon tubes and centrifuged at 50×g for 3 min at room temperature.
The cell pellet was resuspended in 30 ml WME and centrifuged through a Percoll® gradient for 2 times at 100×g. The hepatocytes were washed again with Williams' medium E (WME) and resuspended in medium containing 5% FCS. Cell viability was determined by trypan blue exclusion.
For the metabolic stability assay liver cells were distributed in WME containing 5% FCS to glass vials at a density of 1.0×10^6 vital cells/m. The test compound was added to a final concentration of 1 μM. During incubation, the hepatocyte suspensions were continuously shaken and aliquots were taken at 2, 8, 16, 30, 45 and 90 min, to which equal volumes of cold methanol were immediately added. Samples were frozen at −20° C. over night, after subsequently centrifuged for 15 minutes at 3000 rpm and the supernatant was analyzed with an Agilent 1200 HPLC-system with LCMS/MS detection.
The half-life of a test compound was determined from the concentration-time plot. From the half-life the intrinsic clearances were calculated. Together with the additional parameters liver blood flow, amount of liver cells in vivo and in vitro. The hepatic in vivo blood clearance (CL) and the maximal oral bioavailability (Fmax) was calculated. The following parameter values were used: Liver blood flow—4.2 L/h/kg rat; specific liver weight—32 g/kg rat body weight; liver cells in vivo—1.1×10^8 cells/g liver, liver cells in vitro—0.5×10^6/ml.

[4] = target: T1, human kinase Mps-1 (Homo sapiens, UniProt P33981); experiment: Mps-1 Kinase Assay (TR-FRET); format: biochemical; details: 10 μM ATP
T1 construct: N-terminally GST-tagged human full length recombinant Mps-1 kinase; purchased Invitrogen, Karslruhe, Germany PV4071
T1 sequence (P33981 1-857): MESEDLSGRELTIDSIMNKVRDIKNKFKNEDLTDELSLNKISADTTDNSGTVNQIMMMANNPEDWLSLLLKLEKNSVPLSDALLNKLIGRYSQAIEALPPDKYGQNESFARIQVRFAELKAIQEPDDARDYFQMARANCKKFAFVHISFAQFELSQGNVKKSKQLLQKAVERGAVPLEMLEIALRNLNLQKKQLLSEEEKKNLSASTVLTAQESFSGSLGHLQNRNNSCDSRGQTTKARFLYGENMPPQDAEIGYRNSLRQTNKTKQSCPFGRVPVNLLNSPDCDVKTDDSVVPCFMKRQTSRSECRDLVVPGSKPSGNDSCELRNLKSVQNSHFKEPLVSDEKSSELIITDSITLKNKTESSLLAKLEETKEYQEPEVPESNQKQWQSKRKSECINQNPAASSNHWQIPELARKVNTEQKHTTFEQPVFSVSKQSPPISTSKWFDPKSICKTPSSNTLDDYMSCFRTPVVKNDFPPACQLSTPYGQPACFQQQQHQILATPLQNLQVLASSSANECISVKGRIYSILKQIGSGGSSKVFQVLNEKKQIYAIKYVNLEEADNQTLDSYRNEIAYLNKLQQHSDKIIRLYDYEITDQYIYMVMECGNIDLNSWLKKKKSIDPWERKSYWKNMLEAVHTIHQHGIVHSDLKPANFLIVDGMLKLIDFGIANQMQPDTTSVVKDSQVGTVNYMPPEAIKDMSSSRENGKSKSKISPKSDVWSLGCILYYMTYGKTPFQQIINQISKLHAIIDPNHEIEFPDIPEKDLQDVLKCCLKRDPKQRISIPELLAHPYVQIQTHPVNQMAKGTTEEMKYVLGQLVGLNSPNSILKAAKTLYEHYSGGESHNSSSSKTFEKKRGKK
Experimental: The human kinase Mps-1 phosphorylates a biotinylated substrate peptide. Detection of the phosphorylated product is achieved by time-resolved fluorescence resonance energy transfer (TR-FRET) from Europium-labelled anti-phospho-Serine/Threonine antibody as donor to streptavidin Labelled with cross-linked allophycocyanin (SA-XLent) as acceptor. Compounds are tested for their inhibition of the kinase activity.
N-terminally GST-tagged human full length recombinant Mps-1 kinase (purchased from Invitrogen, Karslruhe, Germany, cat. no PV4071) was used. As substrate for the kinase reaction a biotinylated peptide of the amino-acid sequence […] (C-terminus in amide form, purchased from Biosynthan GmbH, Berlin) was used.
The concentration of Mps-1 in the assay was adjusted to the activity of the enzyme lot and was chosen appropriate to have the assay in the linear range, typical enzyme concentrations were in the range of about 1 nM (final conc. in the 5 μl assay volume).
The resulting mixture was incubated 1 h at 22° C. to allow the binding of the phosphorylated peptide to the anti-phospho(Ser/Thr)-Europium-antibody. Subsequently the amount of phosphorylated substrate was evaluated by measurement of the resonance energy transfer from the Europium-labelled anti-phospho(Ser/Thr) antibody to the Streptavidin-XLent.

[5] = Paclitaxel 20/15 (d19) mg/kg QD 2on/6off i.v.

Row | Compound | Fmax (maximal oral bioavailability) [3] [%] | IC50 [4] [nM] | also measured
1 | CC(=O)O[C@H]1C(=O)[C@@]2(C)[C@H]([C@H](OC(=O)c3ccccc3)[C@]3(O)C[C@H](OC(=O)[C@H](O)[C@@H](NC(=O)c4ccccc4)c4ccccc4)C(C)=C1C3(C)C)[C@]1(OC(C)=O)CO[C@@H]1C[C@@H]2O [Paclitaxel, (2α,4α,5β,7β,10β,13α)-4,10-bis(acetyloxy)-13-{[(2R,3S)-3-(benzoylamino)-2-hydroxy-3-phenylpropanoyl]oxy}-1,7-dihydroxy-9-oxo-5,20-epoxytax-11-en-2-yl benzoate, reference compound] | – | – | Fatal Tox [1, 5]: 0/10; T/C area [1, 5]: 0.13^#; T/C area ([1]; Paclitaxel 20/15 (d19) mg/kg QD 2on/6off i.v., listed as paclitaxel): 0.13; Max. Body weight loss ([1]; mouse, in vivo, iv): −1.9%; Fatal Tox [2, 5]: 0/10; T/C area ([2]; Paclitaxel 20/15 (d19) mg/kg QD 2on/6off i.v., relative tumor area at control dosing stop): 0.06^#; Max. Body weight loss ([2]; mouse, in vivo, iv): −0.7%
2 | Cc1cc(-c2cnc3c(NCCC(F)(F)F)cc(C(=O)c4cccc(F)c4F)nn23)ccc1C(=O)NC1CC1 [Compound A14, N-Cyclopropyl-4-{6-(2,3-difluorobenzoyl)-8-[(3,3,3-trifluoropropyl)amino]imidazo[1,2-b]pyridazin-3-yl}-2-methylbenzamide] | 51 | 0.6 | –
3 | C=C(c1cccc(OC)c1)c1cc(NCCC(F)(F)F)c2ncc(-c3ccc(C(=O)NC4CC4)c(C)c3)n2n1 [Compound A8, N-Cyclopropyl-4-{6-[1-(3-methoxyphenyl)vinyl]-8-[(3,3,3-trifluoropropyl)amino]imidazo[1,2-b]pyridazin-3-yl}-2-methylbenzamide] | 57 | 0.8 | –
4 | COc1cccc(C(=O)c2cc(NCCC(F)(F)F)c3ncc(-c4ccc(C(=O)NC5CC5)c(C)c4)n3n2)c1 [Compound A7, N-Cyclopropyl-4-{6-(3-methoxybenzoyl)-8-[(3,3,3-trifluoropropyl)amino]imidazo[1,2-b]pyridazin-3-yl}-2-methylbenzamide] | 26 | 0.5 | –
5 | Cc1cc(-c2cnc3c(NCCC(F)(F)F)cc(C(O)c4cccc(F)c4O)nn23)ccc1C(=O)NC1CC1 (racemic) [Compound A3, (RS)—N-Cyclopropyl-4-{6-[(3-fluoro-2-hydroxyphenyl)(hydroxy)methyl]-8-[(3,3,3-trifluoropropyl)amino]imidazo[1,2-b]pyridazin-3-yl}-2-methylbenzamide] | 18 | 0.2 | –
6 | COc1ccc(C(=O)c2cc(NCCC(F)(F)F)c3ncc(-c4ccc(C(=O)NC5CC5)c(C)c4)n3n2)cc1 [Compound A9, N-Cyclopropyl-4-{6-(4-methoxybenzoyl)-8-[(3,3,3-trifluoropropyl)amino]imidazo[1,2-b]pyridazin-3-yl}-2-methylbenzamide] | 71 | 1.2 | –
7 | C=C(c1cc(NCCC(F)(F)F)c2ncc(-c3ccc(C(=O)NC4CC4)c(C)c3)n2n1)c1cc(F)ccc1O [Compound A22, N-cyclopropyl-4-{6-[1-(5-fluoro-2-hydroxyphenyl)ethenyl]-8-[(3,3,3-trifluoropropyl)amino]imidazo[1,2-b]pyridazin-3-yl}-2-methylbenzamide] | 28 | 0.4 | –
8 | Cc1cc(-c2cnc3c(NCCC(F)(F)F)cc(C(F)(F)c4cccc(F)c4F)nn23)ccc1C(=O)NC1CC1 [Compound A18, N-Cyclopropyl-4-{6-[(2,3-difluorophenyl)(difluoro)methyl]-8-[(3,3,3-trifluoropropyl)amino]imidazo[1,2-b]pyridazin-3-yl}-2-methylbenzamide] | 76 | 1.5 | –
9 | C=C(c1ccc(OC)cc1)c1cc(NCCC(F)(F)F)c2ncc(-c3ccc(C(=O)NC4CC4)c(C)c3)n2n1 [Compound A10, N-Cyclopropyl-4-{6-[1-(4-methoxyphenyl)vinyl]-8-[(3,3,3-trifluoropropyl)amino]imidazo[1,2-b]pyridazin-3-yl}-2-methylbenzamide] | 48 | 0.5 | –
10 | COc1ccc(C(F)(F)c2cc(NCCC(F)(F)F)c3ncc(-c4ccc(C(=O)NC5CC5)c(C)c4)n3n2)cc1F [Compound A2, N-Cyclopropyl-4-{6-[difluoro(3-fluoro-4-methoxyphenyl)methyl]-8-[(3,3,3-trifluoropropyl)amino]imidazo[1,2-b]pyridazin-3-yl}-2-methylbenzamide] | 64 | 0.6 | –
11 | Cc1cc(-c2cnc3c(NCCC(F)(F)F)cc(C(F)c4cccc(F)c4)nn23)ccc1C(=O)NC1CC1 (racemic) [Compound A5, (RS)—N-Cyclopropyl-4-{6-[fluoro(3-fluorophenyl)methyl]-8-[(3,3,3-trifluoropropyl)amino]imidazo[1,2-b]pyridazin-3-yl}-2-methylbenzamide] | 49 | 0.7 | –
12 | Cc1cc(-c2cnc3c(NCCC(F)(F)F)cc(C(O)c4cc(F)ccc4F)nn23)ccc1C(=O)NC1CC1 (racemic) [Compound A11, (RS)—N-Cyclopropyl-4-{6-[(2,5-difluorophenyl)(hydroxy)methyl]-8-[(3,3,3-trifluoropropyl)amino]imidazo[1,2-b]pyridazin-3-yl}-2-methylbenzamide] | 45 | 0.3 | –
13 | C=C(c1cccc(F)c1)c1cc(NCCC(F)(F)F)c2ncc(-c3ccc(C(=O)NC4CC4)c(C)c3)n2n1 [Compound A24, N-cyclopropyl-4-{6-[1-(3-fluorophenyl)ethenyl]-8-[(3,3,3-trifluoropropyl)amino]imidazo[1,2-b]pyridazin-3-yl}-2-methylbenzamide] | 48 | 0.3 | –
